# From US8987311B2, “Triazolyl-substituted pyridyl compounds useful as kinase inhibitors” (Bristol-Myers Squibb Company, priority 2012, dated 2015)
# Target: T1, IRAK4 (Homo sapiens, UniProt Q9NWZ3)
# T1 sequence (Q9NWZ3 1-460): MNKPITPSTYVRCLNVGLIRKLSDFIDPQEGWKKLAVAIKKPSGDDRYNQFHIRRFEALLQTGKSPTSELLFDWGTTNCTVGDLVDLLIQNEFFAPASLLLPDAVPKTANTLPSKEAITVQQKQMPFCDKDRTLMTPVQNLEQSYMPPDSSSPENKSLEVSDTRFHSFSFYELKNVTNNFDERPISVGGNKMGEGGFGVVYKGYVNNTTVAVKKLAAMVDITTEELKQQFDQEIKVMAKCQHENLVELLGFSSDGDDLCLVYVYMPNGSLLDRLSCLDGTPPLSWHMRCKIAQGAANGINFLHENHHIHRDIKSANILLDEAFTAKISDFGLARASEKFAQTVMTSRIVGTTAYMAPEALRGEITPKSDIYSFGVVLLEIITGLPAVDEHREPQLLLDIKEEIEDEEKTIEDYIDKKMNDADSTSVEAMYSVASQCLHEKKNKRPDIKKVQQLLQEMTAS
# Assay: IRAK4 Inhibition Assay
# Type: biochemical
# Settings: ATP 500 μM; FL-IPTSPITTTYFFFKKK peptide 1.5 μM; IRAK4 0.6 nM; 60 min room temperature; Caliper LabChip 3000
# Description: The assays were performed in U-bottom 384-well plates. The final assay volume was 30 μL prepared from 15 μL additions of enzyme and substrates (fluoresceinated peptide and ATP) and test compounds in assay buffer (20 mM HEPES pH 7.2, 10 mM MgCl2, 0.015% Brij35 and 4 mM DTT). The reaction was initiated by the combination of IRAK4 with substrates and test compounds. The reaction was incubated at room temperature for 60 min. and terminated by adding 45 μL of 35 mM EDTA to each sample. The reaction mixture was analyzed on the Caliper LabChip 3000 (Caliper, Hopkinton, Mass.) by electrophoretic separation of the fluorescent substrate and phosphorylated product. Inhibition data were calculated by comparison to no enzyme control reactions for 100% inhibition and vehicle-only reactions for 0% inhibition. The final concentrations of reagents in the assays are ATP, 500 μM; FL-IPTSPITTTYFFFKKK peptide 1.5 μM; IRAK4, 0.6 nM; and DMSO, 1.6%.
row,SMILES,IC50 [nM]
1,"CC(C)Nc1cc(Nc2ccc3ncsc3c2)ncc1-c1nnc[nH]1 [Example 1, N2-(benzo[d]thiazol-6-yl)-N4-isopropyl-5-(4H-1,2,4-triazol-3-yl)pyridine-2,4-diamine]",25.3
2,"Cc1oc(-c2cnc(Nc3ccc4ncsc4c3)cc2NC(C)C)nc1NC(=O)OC(C)(C)C [Example 106, tert-butyl 2-(6-(benzo[d]thiazol-6-ylamino)-4-(isopropylamino)pyridin-3-yl)-5-methyloxazol-4-ylcarbamate]",875
3,"CC(C)Nc1cc(Nc2ccc3ncsc3c2)ncc1-c1nc(C(N)=O)co1 [Example 108, 2-(6-(Benzo[d]thiazol-6-ylamino)-4-(isopropylamino)pyridin-3-yl)oxazole-4-carboxamide]",2.7
4,"CC(C)Nc1cc(Nc2ccc3ncsc3c2)ncc1-c1nnc(C(=O)N2CCC(O)C2)s1 (single isomer, unassigned) [Example 7, (5-(6-(Benzo[d]thiazol-6-ylamino)-4-(isopropylamino)pyridin-3-yl)-1,3,4-thiadiazol-2-yl)(3-hydroxypyrrolidin-1-yl)methanone]",3.2
5,"CC(C)Nc1cc(Nc2ccc3ncsc3c2)ncc1-c1nnc(C(=O)N2CCC(O)C2)s1 (single isomer, unassigned) [Example 6, (5-(6-(Benzo[d]thiazol-6-ylamino)-4-(isopropylamino)pyridin-3-yl)-1,3,4-thiadiazol-2-yl)(3-hydroxypyrrolidin-1-yl)methanone]",2.8
6,"CC(C)Nc1cc(Nc2ccc3ncsc3c2)ncc1-c1nnc(-c2ccc(F)c(S(=O)(=O)NC(C)(C)C)c2)o1 [Example 143, 5-(5-(6-(Benzo[d]thiazol-6-ylamino)-4-(isopropylamino)pyridin-3-yl)-1,3,4-oxadiazol-2-yl)-N-(tert-butyl)-2-fluorobenzenesulfonamide]",676
7,"CC(C)Nc1cc(Nc2ccc(C#N)cc2)ncc1-c1nnc(NC[C@@H](F)CO)o1 [Example 115, (R)-4-((5-(5-((2-Fluoro-3-hydroxypropyl)amino)-1,3,4-oxadiazol-2-yl)-4-(isopropylamino)pyridin-2-yl)amino)benzonitrile]",22.9
8,"CC(C)Nc1cc(Nc2ccc3ncsc3c2)ncc1-c1nnc(NC2CNC2)o1 [Example 128, 5-(5-(Azetidin-3-ylamino)-1,3,4-oxadiazol-2-yl)-N2-(benzo[d]thiazol-6-yl)-N4-isopropylpyridine-2,4-diamine]",26.4
9,"Cc1sc(-c2cnc(Nc3ccc4ncsc4c3)cc2NC(C)C)nc1C(=O)NCCCN1CCCCC1 [Example 25, 2-(6-(benzo[d]thiazol-6-ylamino)-4-(isopropylamino)pyridin-3-yl)-5-methyl-N-(3-(piperidin-1-yl)propyl)thiazole-4-carboxamide]",2.7
10,"CC(C)Nc1cc(Nc2ccc3ncsc3c2)ncc1-c1nnc(-c2cccc(C(N)=O)c2)o1 [Example 148, 3-(5-(6-(Benzo[d]thiazol-6-ylamino)-4-(isopropylamino)pyridin-3-yl)-1,3,4-oxadiazol-2-yl)benzamide]",564
11,"CCOC(=O)c1nc(-c2cnc(Nc3ccc4ncsc4c3)cc2NC(C)C)sc1C [Example 23, Ethyl 2-(6-(benzo[d]thiazol-6-ylamino)-4-(isopropylamino)pyridin-3-yl)-5-methylthiazole-4-carboxylate]",961
12,"CC(C)Nc1cc(Nc2ccc3ncsc3c2)ncc1-c1nc(C(=O)NC[C@H](O)c2ccccc2)cs1 [Example 81, (R)-2-(6-(Benzo[d]thiazol-6-ylamino)-4-(isopropylamino)pyridin-3-yl)-N-(2-hydroxy-2-phenylethyl)thiazole-4-carboxamide]",26
13,"CC(C)Nc1cc(Nc2ccc3ncsc3c2)ncc1-c1nnc(N2CCN(CCO)CC2)o1 [Example 129, 2-(4-(5-(6-(Benzo[d]thiazol-6-ylamino)-4-(isopropylamino)pyridin-3-yl)-1,3,4-oxadiazol-2-yl)piperazin-1-yl)ethanol]",25.4
14,"CNC(=O)c1ccc(Nc2cc(Nc3ccc4ncsc4c3)ncc2-c2nnc(C(=O)N3CC[C@@H](O)C3)s2)cc1 [Example 19, (R)-4-((2-(benzo[d]thiazol-6-ylamino)-5-(5-(3-hydroxypyrrolidine-1-carbonyl)-1,3,4-thiadiazol-2-yl)pyridin-4-yl)amino)-N-methylbenzamide]",3.2
15,"CC(=O)NC1CCN(C(=O)c2nnc(-c3cnc(Nc4ccc5ncsc5c4)cc3NC(C)C)s2)C1 (centres unmarked) [Example 8, N-(1-(5-(6-(benzo[d]thiazol-6-ylamino)-4-(isopropylamino)pyridin-3-yl)-1,3,4-thiadiazole-2-carbonyl)pyrrolidin-3-yl)acetamide]",3.3
16,"CC(C)Nc1cc(Nc2ccc3ncsc3c2)ncc1-c1nnc(N2CCN(CCN3CCOCC3)CC2)o1 [Example 130, N2-(benzo[d]thiazol-6-yl)-N4-isopropyl-5-(5-(4-(2-morpholinoethyl)piperazin-1-yl)-1,3,4-oxadiazol-2-yl)pyridine-2,4-diamine]",22.1
17,"CC(C)Nc1cc(Nc2ccc3ncsc3c2)ncc1-c1nc(C(=O)NCC2CCCO2)cs1 (centres unmarked) [Example 59, 2-(6-(Benzo[d]thiazol-6-ylamino)-4-(isopropylamino)pyridin-3-yl)-N-((tetrahydrofuran-2-yl)methyl)thiazole-4-carboxamide]",24
18,"CC(C)Nc1cc(Nc2ccc3ncsc3c2)ncc1-c1nc(C(=O)N2CCN(c3ccc(F)cc3F)CC2)cs1 [Example 31, (2-(6-(Benzo[d]thiazol-6-ylamino)-4-(isopropylamino)pyridin-3-yl)thiazol-4-yl)(4-(2,4-difluorophenyl)piperazin-1-yl)methanone]",764
19,"CC(C)Nc1cc(Nc2ccc3ncsc3c2)ncc1-c1ccc2cn[nH]c2c1 [Example 177, N2-(Benzo[d]thiazol-6-yl)-5-(1H-indazol-6-yl)-N4-isopropylpyridine-2,4-diamine]",813
20,"NC(=O)c1nnc(-c2cnc(Nc3ccc4ncsc4c3)cc2N[C@H](CO)Cc2ccccc2)o1 [Example 152, (S)-5-(6-(Benzo[d]thiazol-6-ylamino)-4-((1-hydroxy-3-phenylpropan-2-yl)amino)pyridin-3-yl)-1,3,4-oxadiazole-2-carboxamide]",24.5
21,"CC(C)Nc1cc(Nc2ccc3ncsc3c2)ncc1-c1nc(C(=O)NCC2CCCCC2)cs1 [Example 56, 2-(6-(Benzo[d]thiazol-6-ylamino)-4-(isopropylamino)pyridin-3-yl)-N-(cyclohexylmethyl)thiazole-4-carboxamide]",795
22,"CC(C)Nc1cc(Nc2ccc3ncsc3c2)ncc1-c1nc(C(=O)NCCCN2CCCC2)cs1 [Example 82, 2-(6-(Benzo[d]thiazol-6-ylamino)-4-(isopropylamino)pyridin-3-yl)-N-(3-(pyrrolidin-1-yl)propyl)thiazole-4-carboxamide]",3.1
23,"CC(C)Nc1cc(Nc2ccc3ncsc3c2)ncc1-c1nc(C(=O)N2CCC3(CC2)C(=O)NCN3c2ccccc2)cs1 [Example 48, 8-(2-(6-(Benzo[d]thiazol-6-ylamino)-4-(isopropylamino)pyridin-3-yl)thiazole-4-carbonyl)-1-phenyl-1,3,8-triazaspiro[4.5]decan-4-one]",576
24,"CC(C)Nc1cc(Nc2ccc3ncsc3c2)ncc1-c1nnc(C(=O)N2CCC(N)CC2)o1 [Example 161, (4-Aminopiperidin-1-yl)(5-(6-(benzo[d]thiazol-6-ylamino)-4-(isopropylamino)pyridin-3-yl)-1,3,4-oxadiazol-2-yl)methanone]",23
25,"CC(C)Nc1cc(Nc2ccc3nsnc3c2)ncc1-c1nnc(C(=O)N2CC[C@@H](O)C2)s1 [Example 3, (R)-(5-(6-(Benzo[c][1,2,5]thiadiazol-5-ylamino)-4-(isopropylamino)pyridin-3-yl)-1,3,4-thiadiazol-2-yl)-(3-hydroxypyrrolidin-1-yl)methanone]",2.5
26,"COc1cccc(-c2cnc(Nc3ccc4ncsc4c3)cc2NC(C)C)n1 [Example 176, N6′-(Benzo[d]thiazol-6-yl)-N4′-isopropyl-6-methoxy-[2,3′-bipyridine]-4′,6′-diamine]",616
